Reference: PMC6925736, “Development of a HPLC-MS/MS Method to Determine the 13 Elements of Semen Cuscutae and Application to a Pharmacokinetic Study in Rats” (Evidence-based Complementary and Alternative Medicine : eCAM, 2019)

What was measured:
[1] = Stability of analytes in rat plasma QC samples under processing and storage conditions; assay type: in vitro ADME; conditions: n = 6; for Measured concentration, room temperature for 4h / Measured concentration, three freeze-thaw / Measured concentration, −70°C for 21 days: rat plasma; for Measured concentration, autosampler for 12h: treated rat plasma sample
Procedure: The stability of the 13 analytes was evaluated by QC samples in different processing and storage conditions, including short-term stability (putting the analytes in ambient temperature for 4 h and storing analytes in autosampler for 12 h after treatment), long-term stability (storing the analytes at −70°C for 21 days) and subjecting analytes to three freeze-thaw cycles. All stability experiments were tested in six parallels with low, middle, and high concentrations.

[2] = Pharmacokinetic study in rats after oral administration of Semen Cuscutae extract (HPLC-MS/MS of plasma); assay type: in vivo, Sprague–Dawley rats; conditions: oral Semen Cuscutae extract 13 g/kg; for AUC: read-out: AUC(0-tn)
Procedure: 20 μL of methanol, 20 μL of IS (liquiritin, 200 ng/mL) and 20 μL of formic acid were added to 100 μL of plasma sample and then vortex-mixed. The mixture was extracted with 800 μL of acetonitrile by vortexing for 3 min. After centrifugation at 14000 rpm for 10 min, the supernatant was transferred to a clean glass tube and dried with nitrogen. The residue was reconstituted in 100 μL of methanol and then centrifuged at 14000 rpm for 10 min. 5 μL of supernatant was injected into the LC–MS/MS system for analysis.
Six Sprague–Dawley rats (SPF, 200 ± 10 g, male) were purchased from HFK Laboratory Animal Technology Co., Ltd. The rats were housed in a standard laboratory condition (12 h dark-light cycle; temperature was 25°C ± 2°C and humidity was kept 50 ± 5%) and fed standard dry pellet diet and water for one week for acclimatization. Before the experiments, the rats were in fasting state for 12 h, with free access to water. The Semen Cuscutae extracts were dissolved in 0.5% carboxymethyl cellulose-sodium, prepared into suspension and gavage to the rats at a dose of 13 g/kg. Approximately 200 μL of rat blood samples was collected from the orbital venous plexus at 0, 0.03, 0.08, 0.17, 0.25, 0.5, 1, 2, 4, 6, 8, 10, 12, 24, 36, and 48 h after oral administration into 1.5 mL heparinized centrifuge tube. After centrifugation at 7000 rpm for 10 min immediately, the supernatant was collected into a new centrifuge tube and stored at −70°C until analysis.
Pharmacokinetic parameters (Cmax, t1/2, Tmax, AUC(0-tn), and AUC(0-∞)) were obtained using the software “Drug and Statistics 3.0” (DAS 3.0) (Medical College of Wannan, China).

[3] = male, Sprague-Dawley, rat, plasma, po, 13 g/kg, n = 6
[4] = male, Sprague-Dawley, rat plasma, n = 6
[5] = rat plasma, n = 6, listed as isoquercitrin

Compound: COc1cc(-c2oc3cc(O)cc(O)c3c(=O)c2O[C@@H]2O[C@H](CO)[C@@H](O)[C@H](O)[C@H]2O)ccc1O [Isorhamnetin-3-O-glucoside]
- Measured concentration, room temperature for 4h ([1]; spiked 2 ng/mL): 2.0 ± 0.1 ng/mL
- Measured concentration, three freeze-thaw ([1]; spiked 2 ng/mL): 2.0 ± 0.1 ng/mL
- Measured concentration, −70°C for 21 days ([1]; spiked 2 ng/mL): 2.1 ± 0.1 ng/mL
- Measured concentration, room temperature for 4h ([1]; spiked 25 ng/mL): 27.1 ± 1.3 ng/mL
- Measured concentration, three freeze-thaw ([1]; spiked 25 ng/mL): 27.1 ± 1.5 ng/mL
- Measured concentration, −70°C for 21 days ([1]; spiked 25 ng/mL): 26.2 ± 0.6 ng/mL
- Measured concentration, room temperature for 4h ([1]; spiked 250 ng/mL): 259.9 ± 5.5 ng/mL
- Measured concentration, three freeze-thaw ([1]; spiked 250 ng/mL): 255.0 ± 5.7 ng/mL
- Measured concentration, −70°C for 21 days ([1]; spiked 250 ng/mL): 249.5 ± 7.0 ng/mL
- Measured concentration, autosampler for 12h ([1]; spiked 2 ng/mL): 2.1 ± 0.1 ng/mL
- Measured concentration, autosampler for 12h ([1]; spiked 25 ng/mL): 26.9 ± 1.0 ng/mL
- Measured concentration, autosampler for 12h ([1]; spiked 250 ng/mL): 251.5 ± 5.4 ng/mL
- half-life [2, 3]: < 90 min
- AUC(0-inf) [2, 4]: 257 ± 74.4 ng·h/mL
- Cmax [2, 4]: 19.5 ± 9.8 ng/mL
- AUC [2, 4]: 172 ± 49.2 ng·h/mL
- T max ([2]; rat plasma, n = 6): 18 ± 0.6 min
- t 1/2 ([2]; rat plasma, n = 6): 1.23 ± 0.26 h
- T max ([2]; rat plasma, n = 6, listed as isorhamnetin-3-O-glucoside): less than 1 h

Compound: O=c1c(O)c(-c2ccc(O)cc2)oc2cc(O)cc(O)c12 [Kaempferol]
- Measured concentration, room temperature for 4h ([1]; spiked 2 ng/mL): 2.2 ± 0.2 ng/mL
- Measured concentration, three freeze-thaw ([1]; spiked 2 ng/mL): 2.0 ± 0.2 ng/mL
- Measured concentration, −70°C for 21 days ([1]; spiked 2 ng/mL): 2.0 ± 0.1 ng/mL
- Measured concentration, room temperature for 4h ([1]; spiked 25 ng/mL): 24.8 ± 0.3 ng/mL
- Measured concentration, three freeze-thaw ([1]; spiked 25 ng/mL): 26.2 ± 1.6 ng/mL
- Measured concentration, −70°C for 21 days ([1]; spiked 25 ng/mL): 25.7 ± 0.8 ng/mL
- Measured concentration, room temperature for 4h ([1]; spiked 250 ng/mL): 247.5 ± 6.3 ng/mL
- Measured concentration, three freeze-thaw ([1]; spiked 250 ng/mL): 252.6 ± 7.5 ng/mL
- Measured concentration, −70°C for 21 days ([1]; spiked 250 ng/mL): 257.2 ± 6.4 ng/mL
- Measured concentration, autosampler for 12h ([1]; spiked 2 ng/mL): 2.1 ± 0.2 ng/mL
- Measured concentration, autosampler for 12h ([1]; spiked 25 ng/mL): 25.4 ± 2.5 ng/mL
- Measured concentration, autosampler for 12h ([1]; spiked 250 ng/mL): 254.0 ± 4.9 ng/mL
- plasma concentration after 15 minutes of intragastric administration ([2]; rat plasma, LLOQ 1 ng/mL): lower than the LLOQ

Compound: C[C@@H]1O[C@@H](OC[C@H]2O[C@@H](Oc3c(-c4ccc(O)c(O)c4)oc4cc(O)cc(O)c4c3=O)[C@H](O)[C@@H](O)[C@@H]2O)[C@H](O)[C@H](O)[C@H]1O [Rutin]
- Measured concentration, room temperature for 4h ([1]; spiked 4 ng/mL): 3.9 ± 0.2 ng/mL
- Measured concentration, three freeze-thaw ([1]; spiked 4 ng/mL): 4.0 ± 0.1 ng/mL
- Measured concentration, −70°C for 21 days ([1]; spiked 4 ng/mL): 4.0 ± 0.1 ng/mL
- Measured concentration, room temperature for 4h ([1]; spiked 50 ng/mL): 56.3 ± 2.3 ng/mL
- Measured concentration, three freeze-thaw ([1]; spiked 50 ng/mL): 57.7 ± 1.0 ng/mL
- Measured concentration, −70°C for 21 days ([1]; spiked 50 ng/mL): 52.7 ± 3.9 ng/mL
- Measured concentration, room temperature for 4h ([1]; spiked 500 ng/mL): 505.7 ± 13.0 ng/mL
- Measured concentration, three freeze-thaw ([1]; spiked 500 ng/mL): 513.1 ± 7.4 ng/mL
- Measured concentration, −70°C for 21 days ([1]; spiked 500 ng/mL): 494.4 ± 8.8 ng/mL
- Measured concentration, autosampler for 12h ([1]; spiked 4 ng/mL): 4.0 ± 0.2 ng/mL
- Measured concentration, autosampler for 12h ([1]; spiked 50 ng/mL): 49.8 ± 2.7 ng/mL
- Measured concentration, autosampler for 12h ([1]; spiked 500 ng/mL): 489.3 ± 14.2 ng/mL
- Tmax [2, 3]: 10 ± 0.03 h
- half-life [2, 3]: > 450 min
- AUC(0-inf) [2, 4]: 4790 ± 2240 ng·h/mL
- Cmax [2, 4]: 158 ± 84.1 ng/mL
- AUC [2, 4]: 4460 ± 2270 ng·h/mL
- C max ([2]; rat plasma, n = 6): higher than that of other components
- t 1/2 ([2]; rat plasma, n = 6): 7.70 ± 0.90 h

Compound: Isoquercitrin
- Measured concentration, room temperature for 4h ([1]; spiked 2 ng/mL): 1.8 ± 0.2 ng/mL
- Measured concentration, three freeze-thaw ([1]; spiked 2 ng/mL): 2.1 ± 0.1 ng/mL
- Measured concentration, −70°C for 21 days ([1]; spiked 2 ng/mL): 1.9 ± 0.1 ng/mL
- Measured concentration, room temperature for 4h ([1]; spiked 25 ng/mL): 22.8 ± 1.4 ng/mL
- Measured concentration, three freeze-thaw ([1]; spiked 25 ng/mL): 26.2 ± 1.8 ng/mL
- Measured concentration, −70°C for 21 days ([1]; spiked 25 ng/mL): 25.9 ± 1.8 ng/mL
- Measured concentration, room temperature for 4h ([1]; spiked 250 ng/mL): 247.2 ± 14.7 ng/mL
- Measured concentration, three freeze-thaw ([1]; spiked 250 ng/mL): 248.9 ± 5.1 ng/mL
- Measured concentration, −70°C for 21 days ([1]; spiked 250 ng/mL): 263.6 ± 10.2 ng/mL
- Measured concentration, autosampler for 12h ([1]; spiked 2 ng/mL): 1.9 ± 0.1 ng/mL
- Measured concentration, autosampler for 12h ([1]; spiked 25 ng/mL): 24.0 ± 0.5 ng/mL
- Measured concentration, autosampler for 12h ([1]; spiked 250 ng/mL): 238.3 ± 7.2 ng/mL
- AUC(0-tn) ([2]; rat plasma, n = 6): 838.79 ± 518.04 ng·h/mL
- AUC(0-∞) ([2]; rat plasma, n = 6): 949.49 ± 594.15 ng·h/mL
- C max ([2]; rat plasma, n = 6): 52.61 ± 7.55 ng/mL
- T max ([2]; rat plasma, n = 6): 12.6 ± 4.2 min
- t 1/2 ([2]; rat plasma, n = 6): 0.49 ± 0.05 h
- T max [2, 5]: less than 1 h
- t 1/2 [2, 5]: less than 1.5 h
